In US6576640B1, “Benzisoxazoles and phenones as α2-antagonists” (Janssen Pharmaceutica N.V., priority 1998, dated 2003):

What was measured:
[1] = target: T1, cloned human α2A receptors (Homo sapiens, UniProt P08913); assay: In vitro radioligand binding affinity for α2A receptor (3H-rauwolscine competition); details: read-out: dissociation: IC50 value for the α2a receptor
T1 construct: expressed in transfected cells; host or cells: Chinese Hamster Ovary (CHO) cells
T1 sequence (P08913 1-465): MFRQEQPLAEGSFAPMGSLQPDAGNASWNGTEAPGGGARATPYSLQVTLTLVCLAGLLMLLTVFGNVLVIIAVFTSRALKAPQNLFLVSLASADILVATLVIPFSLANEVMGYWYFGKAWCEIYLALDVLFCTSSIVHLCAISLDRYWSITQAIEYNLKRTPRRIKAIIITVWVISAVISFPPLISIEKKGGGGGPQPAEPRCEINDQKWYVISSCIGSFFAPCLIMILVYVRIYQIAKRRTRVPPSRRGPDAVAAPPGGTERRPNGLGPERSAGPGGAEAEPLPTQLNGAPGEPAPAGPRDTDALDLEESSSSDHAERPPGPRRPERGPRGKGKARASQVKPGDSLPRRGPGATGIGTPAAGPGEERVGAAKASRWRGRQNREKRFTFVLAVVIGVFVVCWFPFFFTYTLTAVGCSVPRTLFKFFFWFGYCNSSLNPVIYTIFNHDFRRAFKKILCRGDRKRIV
Procedure: The interaction of the compounds of formula (I) with α2 receptors was assessed in in vitro radioligand binding experiments.
In general, a low concentration of a radioligand with a high binding affinity for a particular receptor is incubated with a sample of a tissue preparation enriched in a particular receptor or with a preparation of cells expressing cloned human receptors in a buffered medium. During the incubation, the radioligand binds to the receptor. When equilibrium of binding is reached, the receptor bound radioactivity is separated from the non-bound radioactivity, and the receptor bound activity is counted. The interaction of the test compounds with the receptor is assessed in competition binding experiments. Various concentrations of the test compound are added to the incubation mixture containing the receptor preparation and the radioligand. Binding of the radioligand will be inhibited by the test compound in proportion to its binding affinity and its concentration.
The radioligand used for α2A, α2B and α2C receptor binding is ^3H-rauwolscine and the receptor preparation used is the Chinese Hamster Ovary (CHO) cell expressing cloned human α2A, α2B and α2C receptors.

[2] = target: dopamine D2 receptor (Homo sapiens, UniProt P14416); assay: Receptor binding affinity for dopamine D2 (dissociation α2a / D2); details: for Ratio D2/α2a (dissociation between the two receptors): ratio of IC50 D2 to IC50 α2a; for IC50: receptor binding affinity, dopamine D2
dopamine D2 receptor, sequence (P14416 whole entry, species assumed): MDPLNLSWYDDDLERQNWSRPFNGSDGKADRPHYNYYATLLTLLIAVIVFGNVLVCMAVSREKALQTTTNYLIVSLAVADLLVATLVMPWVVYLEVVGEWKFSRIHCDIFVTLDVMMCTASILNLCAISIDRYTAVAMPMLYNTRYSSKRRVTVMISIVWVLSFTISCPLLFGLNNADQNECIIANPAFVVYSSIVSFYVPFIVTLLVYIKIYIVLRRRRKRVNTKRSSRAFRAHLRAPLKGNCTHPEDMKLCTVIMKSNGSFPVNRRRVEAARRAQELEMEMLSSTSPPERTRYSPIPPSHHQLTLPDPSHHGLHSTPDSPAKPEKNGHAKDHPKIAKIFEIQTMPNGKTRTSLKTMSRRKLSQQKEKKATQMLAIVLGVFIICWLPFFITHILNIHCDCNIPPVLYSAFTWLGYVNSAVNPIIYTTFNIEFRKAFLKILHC
Excerpt: As already mentioned above, dopamine D2 antagonism may lead to an increased risk of EPS. Thus, the larger the dissociation between α2a and D2, the better. The columns headed “dissociation” show the IC50 value in molar (M) for the α2a receptor and the D2 receptor. By “Ratio” is meant the ratio D2/αa and this is an indication for the dissociation between said two receptors.

IC50 [1] | Ratio D2/α2a (dissociation between the two receptors) [2] | IC50 [2] | melting point | Structure (SMILES)
5 nM | 79 | 400 nM | 190 °C | O=C(CCCCCN1CCc2[nH]c3ccccc3c2C1)c1ccc(F)cc1 [Comp. 1]
2.1 nM | 102 | 210 nM |  | O=C(CCCN1CCc2oc3ccccc3c2C1)c1ccc(F)cc1 [reference compound]
41 nM | 2.5 | 100 nM |  | O=C(CCCN1CCc2[nH]c3ccccc3c2C1)c1ccc(F)cc1 [reference compound]

Structure (SMILES) | IC50 [1] | Ratio D2/α2a (dissociation between the two receptors) [2] | IC50 [2] | melting point
O=C(CCCCCN1CCc2oc3ccccc3c2C1)c1ccc(F)cc1 [Comp. 2, 1-(4-fluorophenyl)-6-(1,2,3,4-tetrahydrobenzofuro[3,2-c]pyridin-2-yl)-1-hexanone (E)-2-butenedioate (1:1)] | 0.26 nM | 1950 | 500 nM | 
